Results on 19 compounds are retold here after ChEMBL document CHEMBL1128575, “Nonpeptidic inhibitors of human leukocyte elastase. 5. Design, synthesis, and X-ray crystallography of a series of orally active 5-aminopyrimidin-6-one-containing trifluoromethyl ketones” (J Med Chem, 1995).

One data set addresses T1, Neutrophil elastase (Homo sapiens, UniProt P08246).
T1 sequence (P08246 whole entry): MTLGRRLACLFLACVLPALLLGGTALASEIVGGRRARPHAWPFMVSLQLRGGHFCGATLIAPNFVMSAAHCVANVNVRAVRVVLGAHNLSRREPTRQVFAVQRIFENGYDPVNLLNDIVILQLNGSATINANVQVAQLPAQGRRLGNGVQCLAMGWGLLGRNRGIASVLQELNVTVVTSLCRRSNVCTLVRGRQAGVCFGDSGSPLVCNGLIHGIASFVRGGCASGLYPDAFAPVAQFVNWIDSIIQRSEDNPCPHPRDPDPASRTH
Kind of data set: In vitro inhibition of human leukocyte elastase mediated hydrolysis of the synthetic substrate MeO-Suc-Ala-Ala-Pro-Val-pNA.

In data set [1] the test system is Cricetinae gen. sp. Kind of data set: Oral dose of 2.5 mg/Kg (90 min prior to instillation of elastase) was tested for the inhibition of elastase-induced lung hemorrhage in hamster. It counts as functional, Cricetulus griseus.
The subject of data set [2] is Cricetinae gen. sp. Kind of data set: Oral dose of 20 mg/Kg (30 min prior to instillation of elastase) was tested for the inhibition of elastase-induced lung hemorrhage in hamster; Not active. It counts as functional, organism-based. The following applies: Cricetulus griseus.
Data set [3] has as its system Cricetinae gen. sp. Kind of data set: Oral dose of 20 mg/Kg (30 min prior to instillation of elastase) was tested for the inhibition of elastase-induced lung hemorrhage in hamster. It counts as functional, Cricetulus griseus.
Data set [4] in a line: Partition coefficient (logP). In kind it is physicochemical. Conditions: octanol/water.
The test system of data set [5] is Cricetinae gen. sp. Kind of data set: Oral dose of 2.5 mg/Kg (30 min prior to instillation of elastase) was tested for the inhibition of elastase-induced lung hemorrhage in hamster. In kind it is functional, Cricetulus griseus.
Data set [6] in a line: Selectivity ratio for bovine pancreatic chymotrypsin and HLE.

The structures appear in SMILES notation. Calls of active or inactive are those of the source. The rule behind the calls is not given here.

Regarding `CSC(=O)Nc1cnc(-c2ccc(F)cc2)n(CC(=O)NC(C(=O)C(F)(F)F)C(C)C)c1=O` (configuration not stated), affinity at Neutrophil elastase was put at a Ki of 23 nM. Also, the inhibition in vivo (commonly how much of the control response was suppressed) at 2.5 mg/kg in the data set on Cricetinae gen. sp. [1] was found to be 50%.

With `CC(C)C(NC(=O)Cn1c(-c2ccc(NC=O)cc2)ncc(NC(=O)OCc2ccccc2)c1=O)C(=O)C(F)(F)F` (configuration not stated), the Ki – broadly, a measure of affinity in units of concentration, obtained from inhibition or displacement – on Neutrophil elastase was determined as 9 nM. Besides, in the data set on Cricetinae gen. sp. [2], the inhibition entry was “inactive”.

In the data set with Cricetinae gen. sp. [3], `CC(C)C(NC(=O)Cn1c(-c2ccccc2)ncc(NC(=O)OCc2ccccc2)c1=O)C(=O)C(F)(F)F` (configuration not stated) gave an inhibition in vivo at 20 mg/kg of 54%. Moreover, the lipophilicity (logP) (in general, a log measure of how a compound divides between an organic and an aqueous phase) in data set [4] was determined as 2.1.

In the data set with Cricetinae gen. sp. [5], `COC(=O)Nc1cnc(-c2ccc(F)cc2)n(CC(=O)NC(C(=O)C(F)(F)F)C(C)C)c1=O` (configuration not stated) had an inhibition in vivo at 2.5 mg/kg of 39%. For the same compound, 20 mg/kg produced 73% inhibition in vivo in the data set on Cricetinae gen. sp. [3].

On to `CC(C)C(NC(=O)Cn1c(-c2ccccc2)ccc(NC(=O)OCc2ccccc2)c1=O)C(=O)C(F)(F)F` (configuration not stated), for which the inhibition result in the data set with Cricetinae gen. sp. [2] was “inactive”. In data set [4], the logP was > 4.

Regarding `CC(C)C(NC(=O)Cn1c(-c2ccc(N)cc2)ncc(NC(=O)OCc2ccccc2)c1=O)C(=O)C(F)(F)F` (configuration not stated), affinity on Neutrophil elastase was put at a Ki of 3.6 nM. The inhibition entry in the data set on Cricetinae gen. sp. [2] was “inactive”.

Consider `CC(C)C(NC(=O)Cn1c(-c2ccc(F)cc2)ncc(NC(=O)OCc2ccncc2)c1=O)C(=O)C(F)(F)F` (configuration not stated), for which affinity at Neutrophil elastase was put at a Ki of 23 nM. Also, the inhibition result in the data set on Cricetinae gen. sp. [2] was “inactive”.

`COc1ccc(-c2ncc(NC(=O)OCc3ccccc3)c(=O)n2CC(=O)NC(C(=O)C(F)(F)F)C(C)C)cc1` (configuration not stated) displayed an inhibition constant Ki on Neutrophil elastase of 8.1 nM. Moreover, in the data set on Cricetinae gen. sp. [2], the inhibition result was “inactive”. The Ratio in data set [6] stood at 272.

On Neutrophil elastase, `CC(C)C(NC(=O)Cn1c(-c2ccc([N+](=O)[O-])cc2)ncc(NC(=O)OCc2ccccc2)c1=O)C(=O)C(F)(F)F` (configuration not stated) returned an inhibitory constant (Ki) of 17 nM. The inhibition entry in the data set with Cricetinae gen. sp. [2] was “inactive”. The Ratio in data set [6] stood at 406.

On to `CC(C)C(NC(=O)Cn1c(-c2cccs2)ncc(N)c1=O)C(=O)C(F)(F)F` (configuration not stated), for which the affinity on Neutrophil elastase corresponds to a Ki of 52 nM. Further, the inhibition in vivo at 2.5 mg/kg in the data set on Cricetinae gen. sp. [5] turned out to be 47%; in the data set with Cricetinae gen. sp. [1], 37%. Testing at 20 mg/kg in the data set with Cricetinae gen. sp. [3] gave an inhibition in vivo of 75%.

As for `CC(C)C(NC(=O)Cn1c(-c2cc(F)cc(F)c2)ncc(N)c1=O)C(=O)C(F)(F)F` (configuration not stated), on Neutrophil elastase, the Ki stood at 270 nM. At 2.5 mg/kg the inhibition in vivo in the data set with Cricetinae gen. sp. [1] was 45%. Moreover, the inhibition in vivo at 20 mg/kg in the data set on Cricetinae gen. sp. [3] was found to be 72%.

As for `CC(C)C(NC(=O)Cn1c(-c2cc(F)cc(F)c2)ncc(NC(=O)OCc2ccccc2)c1=O)C(=O)C(F)(F)F` (configuration not stated), on Neutrophil elastase, the affinity, expressed as Ki, was 20 nM. This compound also showed an inhibition in vivo at 20 mg/kg in the data set on Cricetinae gen. sp. [3] of 43%. Further, the Ratio in data set [6] was determined as 230.

With `CC(C)C(NC(=O)Cn1c(-c2ccc(N)cc2)ncc(NS(C)(=O)=O)c1=O)C(=O)C(F)(F)F` (configuration not stated), the inhibition result with Cricetinae gen. sp. [2] was “inactive”.

Compound `CC(C)C(NC(=O)Cn1c(-c2ccc(Cl)cc2)ncc(NC(=O)OCc2ccccc2)c1=O)C(=O)C(F)(F)F` (configuration not stated) displayed an inhibitory constant (Ki) at Neutrophil elastase of 18 nM. For the same compound, the inhibition entry in the data set on Cricetinae gen. sp. [2] is “inactive”. In addition, the Ratio in data set [6] came out at 322.

With `CC(C)C(NC(=O)Cn1c(-c2cc(C(F)(F)F)cc(C(F)(F)F)c2)ncc(NC(=O)OCc2ccccc2)c1=O)C(=O)C(F)(F)F` (configuration not stated), at Neutrophil elastase, the inhibition constant Ki is 72 nM. For the same compound, the inhibition entry with Cricetinae gen. sp. [2] was “inactive”.

For `CC(C)C(NC(=O)Cn1c(-c2ccc(F)cc2)ncc(NC(=O)OCc2ccccn2)c1=O)C(=O)C(F)(F)F` (configuration not stated), the affinity on Neutrophil elastase, expressed as Ki, was 22 nM. Also, in the data set on Cricetinae gen. sp. [2], the inhibition result was “inactive”.

With `CC(C)C(NC(=O)Cn1c(-c2cccs2)ncc(NC(=O)OC(C)(C)C)c1=O)C(=O)C(F)(F)F` (configuration not stated), the affinity on Neutrophil elastase corresponds to a Ki of 27 nM. The figures for the inhibition in vivo at 2.5 mg/kg in the data set with Cricetinae gen. sp. [5] and in the data set on Cricetinae gen. sp. [1] were 50% and 33%, respectively. This compound returned an inhibition in vivo at 20 mg/kg in the data set with Cricetinae gen. sp. [3] of 92%.

As to `CCNc1cnc(-c2cccs2)n(CC(=O)NC(C(=O)C(F)(F)F)C(C)C)c1=O` (configuration not stated), on Neutrophil elastase, the Ki worked out at 26 nM. In addition, the inhibition in vivo at 2.5 mg/kg with Cricetinae gen. sp. [1] is 32%. Besides, in the data set on Cricetinae gen. sp. [3], 20 mg/kg produced 52% inhibition in vivo.

In the case of `CC(C)C(NC(=O)Cn1c(-c2ccc(NC(=O)C(F)(F)F)cc2)ncc(NC(=O)OCc2ccccc2)c1=O)C(=O)C(F)(F)F` (configuration not stated), on Neutrophil elastase, affinity was put at a Ki of 43 nM. In addition, the inhibition result with Cricetinae gen. sp. [2] was “inactive”.
